Measured values from US10941157B2, “Pesticidal compositions and uses thereof” (Gilead Apollo, LLC, priority 2015, dated 2021).
Converted amounts (≈) assume the structure as drawn. Read-outs that look alike come from different tables or passages of the source.

Tests used:
Assay type in all cases: cell-based
[1] = tested on: Botrtyis cinerea (Bc); test: In vitro pathogen growth inhibition assay, Bc; conditions: 48 h
Method in brief: (§1)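 Spores in 17% V8 liquid medium, or 1.5 mm Rs mycelial plugs in ¼ PDB, incubated with compound; final concentration checked by OD600 for precipitation. OD readings at 24 and 48 h, blank-subtracted, plus visual ratings; value is concentration giving ≥90% growth inhibition.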

[2] = tested on: Collectotrichum graminicola (Cg); test: In vitro pathogen growth inhibition assay, Cg; conditions: 48 h
Method in brief: as §1

[3] = tested on: Diplodia maydis (Dm); test: In vitro pathogen growth inhibition assay, Dm; conditions: Stenocarpella maydis, 48 h
Method in brief: (§2)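 Spores of Dm, Fv and Pc were diluted in 17% V8 liquid medium; Rs used 1.5 mm mycelial plugs in ¼ PDB. Compounds from 2.5 mg/ml DMSO stocks were combined with inoculum, growth was read by OD600 at 24 and 48 h with blank subtraction, and the reported value is the concentration giving ≥90% inhibition.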

[4] = tested on: Fusarium moniliforme (Fm); test: In vitro pathogen growth inhibition assay, Fm; conditions: Fusarium verticillioides
Method in brief: as §1

[5] = tested on: Fusarium virguliforme (Fv); test: In vitro pathogen growth inhibition assay, Fv
Method in brief: as §2

[6] = tested on: Phytophthora capsici (Pc); test: In vitro pathogen growth inhibition assay, Pc; conditions: 48 h
Method in brief: as §2

[7] = tested on: Rhizoctonia solani (Rs); test: In vitro pathogen growth inhibition assay, Rs (mycelial plugs); conditions: Rhizoctonia solani, 48 h
Method in brief: as §2

[8] = tested on: Septoria tritici (St); test: In vitro pathogen growth inhibition assay, St; conditions: Zymoseptoria tritici, 48 h
Method in brief: as §1

[9] = ≥90% inhibition, 48 hours vs 2% DMSO control, read-out: Compound Concentration (ppm) sufficient for ≥90% inhibition of growth, Bc
[10] = ≥90% inhibition, 48 hours vs 2% DMSO control, read-out: Compound Concentration (ppm) sufficient for ≥90% inhibition of growth, Cg
[11] = ≥90% inhibition, 48 hours vs 2% DMSO control, read-out: Compound Concentration (ppm) sufficient for ≥90% inhibition of growth, Dm
[12] = ≥90% inhibition, 48 hours vs 2% DMSO control, read-out: Compound Concentration (ppm) sufficient for ≥90% inhibition of growth, Fm
[13] = ≥90% inhibition, 48 hours vs 2% DMSO control, read-out: Compound Concentration (ppm) sufficient for ≥90% inhibition of growth, Fv
[14] = ≥90% inhibition, 48 hours vs 2% DMSO control, read-out: Compound Concentration (ppm) sufficient for ≥90% inhibition of growth, Pc
[15] = ≥90% inhibition, mycelial plugs, 48 hours vs 2% DMSO control, read-out: Compound Concentration (ppm) sufficient for ≥90% inhibition of growth, Rs
[16] = ≥90% inhibition, 48 hours vs 2% DMSO control, read-out: Compound Concentration (ppm) sufficient for ≥90% inhibition of growth, St
[17] = ≥90% growth inhibition, 48 hours, vs 2% DMSO control, read-out: Compound Concentration (ppm) sufficient for ≥90% inhibition of Bc
[18] = ≥90% growth inhibition, 48 hours, vs 2% DMSO control, read-out: Compound Concentration (ppm) sufficient for ≥90% inhibition of Cg
[19] = ≥90% growth inhibition, 48 hours, vs 2% DMSO control, read-out: Compound Concentration (ppm) sufficient for ≥90% inhibition of Dm
[20] = ≥90% growth inhibition, 48 hours, vs 2% DMSO control, read-out: Compound Concentration (ppm) sufficient for ≥90% inhibition of Fm
[21] = ≥90% growth inhibition, 48 hours, vs 2% DMSO control, read-out: Compound Concentration (ppm) sufficient for ≥90% inhibition of Fv
[22] = ≥90% growth inhibition, 48 hours, vs 2% DMSO control, read-out: Compound Concentration (ppm) sufficient for ≥90% inhibition of Pc
[23] = ≥90% growth inhibition, mycelial plugs, 48 hours, vs 2% DMSO control, read-out: Compound Concentration (ppm) sufficient for ≥90% inhibition of Rs
[24] = ≥90% growth inhibition, 48 hours, vs 2% DMSO control, read-out: Compound Concentration (ppm) sufficient for ≥90% inhibition of St

## COc1ccc(F)cc1[C@H](Cn1c(=O)n(C(C)(C)C(=O)NC2CC2)c(=O)c2c(C)c(-n3nccn3)sc21)OC(C)C [Compound I-078]
[1]; [9]
  IC90: 2 µg/mL (≈ 3.42 µM)
[2]; [10]
  IC90: 2 µg/mL (≈ 3.42 µM)
[3]; [11]
  IC90: 2 µg/mL (≈ 3.42 µM)
[4]; [12]
  IC90: 0.08 µg/mL (≈ 0.137 µM)
[5]; [13]
  IC90: 0.4 µg/mL (≈ 0.684 µM)
[6]; [14]
  IC90: > 50 µg/mL
[7]; [15]
  IC90: 0.4 µg/mL (≈ 0.684 µM)
[8]; [16]
  IC90: > 50 µg/mL

## CCO[C@@H](Cn1c(=O)n(C(C)(C)C(=O)N2CCCC2)c(=O)c2c(C)c(-n3nccn3)sc21)c1cc(F)ccc1OC [Compound I-055]
[1]; [9]
  IC90: 0.4 µg/mL (≈ 0.684 µM)
[2]; [10]
  IC90: 0.08 µg/mL (≈ 0.137 µM)
[3]; [11]
  IC90: ≥ 0.4 µg/mL
[4]; [12]
  IC90: 0.08 µg/mL (≈ 0.137 µM)
[5]; [13]
  IC90: ≥ 0.08 µg/mL
[6]; [14]
  IC90: > 50 µg/mL
[7]; [15]
  IC90: 0.4 µg/mL (≈ 0.684 µM)
[8]; [16]
  IC90: ≥ 2 µg/mL

## COCCO[C@@H](Cn1c(=O)n(CC(=O)NC(C)C)c(=O)c2c(C)c(-n3nccn3)sc21)c1cc(F)ccc1OC [Compound I-086]
[1]; [9]
  IC90: > 50 µg/mL
[2]; [10]
  IC90: > 50 µg/mL
[3]; [11]
  IC90: > 50 µg/mL
[4]; [12]
  IC90: 0.08 µg/mL (≈ 0.139 µM)
[5]; [13]
  IC90: ≥ 2 µg/mL
[6]; [14]
  IC90: > 50 µg/mL
[7]; [15]
  IC90: 10 µg/mL (≈ 17.4 µM)
[8]; [16]
  IC90: > 50 µg/mL

## COc1ccc(F)cc1[C@H](Cn1c(=O)n(C(C)C(=O)NC(C)C)c(=O)c2c(C)c(-n3cccn3)sc21)OC(C)C (some centres unmarked) [Compound I-126]
[1]; [9]
  IC90: 2 µg/mL (≈ 3.5 µM)
[2]; [10]
  IC90: 2 µg/mL (≈ 3.5 µM)
[3]; [11]
  IC90: 2 µg/mL (≈ 3.5 µM)
[4]; [12]
  IC90: 0.4 µg/mL (≈ 0.7 µM)
[5]; [13]
  IC90: 1.2 µg/mL (≈ 2.1 µM)
[6]; [14]
  IC90: 50 µg/mL (≈ 87.5 µM)
[7]; [15]
  IC90: 2 µg/mL (≈ 3.5 µM)
[8]; [16]
  IC90: 50 µg/mL (≈ 87.5 µM)

## COc1ccc(F)cc1[C@H](Cn1c(=O)n(C(C)(C)C(=O)NC2CCCCC2)c(=O)c2c(C)c(-n3nccn3)sc21)OC1CCOCC1 [Compound I-039]
[1]; [9]
  IC90: 0.4 µg/mL (≈ 0.598 µM)
[2]; [10]
  IC90: 2 µg/mL (≈ 2.99 µM)
[3]; [11]
  IC90: 0.4 µg/mL (≈ 0.598 µM)
[4]; [12]
  IC90: 0.08 µg/mL (≈ 0.12 µM)
[5]; [13]
  IC90: 0.4 µg/mL (≈ 0.598 µM)
[6]; [14]
  IC90: > 50 µg/mL
[7]; [15]
  IC90: 0.4 µg/mL (≈ 0.598 µM)
[8]; [16]
  IC90: ≥ 2 µg/mL

## COc1ccc(F)cc1[C@H](Cn1c(=O)n(C(C)(C)C(=O)N2CCCC2)c(=O)c2c(C)c(-c3ncco3)sc21)OC(C)C [Compound I-017]
[1]; [9]
  IC90: 0.4 µg/mL (≈ 0.668 µM)
[2]; [10]
  IC90: 0.08 µg/mL (≈ 0.134 µM)
[3]; [11]
  IC90: ≥ 0.08 µg/mL
[4]; [12]
  IC90: 0.08 µg/mL (≈ 0.134 µM)
[5]; [13]
  IC90: 0.4 µg/mL (≈ 0.668 µM)
[6]; [14]
  IC90: > 50 µg/mL
[7]; [15]
  IC90: 0.4 µg/mL (≈ 0.668 µM)
[8]; [16]
  IC90: > 10 µg/mL

## Cc1c(-n2nccn2)sc2c1c(=O)n(C(C)(C)C(=O)NC(C)C)c(=O)n2C[C@H](OCC(C)(C)C#N)c1cc(C#N)ccc1OCC#N [Compound I-269]
[1]; [17]
  IC90: 10 µg/mL (≈ 15.2 µM)
[2]; [18]
  IC90: > 50 µg/mL
[3]; [19]
  IC90: > 50 µg/mL
[4]; [20]
  IC90: 0.4 µg/mL (≈ 0.608 µM)
[5]; [21]
  IC90: 10 µg/mL (≈ 15.2 µM)
[6]; [22]
  IC90: > 50 µg/mL
[7]; [23]
  IC90: 2 µg/mL (≈ 3.04 µM)
[8]; [24]
  IC90: > 50 µg/mL

## COc1ccc(F)cc1[C@H](Cn1c(=O)n(C(C)(C)C(=O)N2CCCCC2)c(=O)c2c(C)c(-n3nccn3)sc21)OC(C)C [Compound I-022]
[1]; [9]
  IC90: 0.08 µg/mL (≈ 0.131 µM)
[2]; [10]
  IC90: 0.08 µg/mL (≈ 0.131 µM)
[3]; [11]
  IC90: 0.08 µg/mL (≈ 0.131 µM)
[4]; [12]
  IC90: 0.08 µg/mL (≈ 0.131 µM)
[5]; [13]
  IC90: ≥ 0.08 µg/mL
[6]; [14]
  IC90: > 50 µg/mL
[7]; [15]
  IC90: 0.08 µg/mL (≈ 0.131 µM)
[8]; [16]
  IC90: ≥ 2 µg/mL

## COc1ccc(F)cc1[C@@H](Cn1c(=O)n(C(C)(C)C(=O)NC(C)C)c(=O)c2c(C)c(-n3nccn3)sc21)OC(C)=O [Compound I-322]
[1]; concentration sufficient to ≥90% inhibition of growth, 48 hours vs 2% DMSO control, read-out: Compound Concentration (ppm) for ≥90% inhibition, Bc
  IC90: 10 µg/mL (≈ 17 µM)
[2]; concentration sufficient to ≥90% inhibition of growth, 48 hours vs 2% DMSO control, read-out: Compound Concentration (ppm) for ≥90% inhibition, Cg
  IC90: > 50 µg/mL
[3]; concentration sufficient to ≥90% inhibition of growth, 48 hours vs 2% DMSO control, read-out: Compound Concentration (ppm) for ≥90% inhibition, Dm
  IC90: > 50 µg/mL
[4]; concentration sufficient to ≥90% inhibition of growth, 48 hours vs 2% DMSO control, read-out: Compound Concentration (ppm) for ≥90% inhibition, Fm
  IC90: 10 µg/mL (≈ 17 µM)
[5]; concentration sufficient to ≥90% inhibition of growth, 48 hours vs 2% DMSO control, read-out: Compound Concentration (ppm) for ≥90% inhibition, Fv
  IC90: ≥ 10 µg/mL
[6]; concentration sufficient to ≥90% inhibition of growth, 48 hours vs 2% DMSO control, read-out: Compound Concentration (ppm) for ≥90% inhibition, Pc
  IC90: > 50 µg/mL
[7]; concentration sufficient to ≥90% inhibition of growth, 48 hours vs 2% DMSO control, read-out: Compound Concentration (ppm) for ≥90% inhibition, Rs
  IC90: > 50 µg/mL
[8]; concentration sufficient to ≥90% inhibition of growth, 48 hours vs 2% DMSO control, read-out: Compound Concentration (ppm) for ≥90% inhibition, St
  IC90: > 50 µg/mL

## COc1ccccc1[C@H](Cn1c(=O)n(C(C)(C)C(=O)NC(C)C)c(=O)c2c(C)c(-n3nccn3)sc21)O[C@H]1CC[C@@H](O)CC1 [Compound I-265]
[1]; [17]
  IC90: 0.4 µg/mL (≈ 0.64 µM)
[2]; [18]
  IC90: 2 µg/mL (≈ 3.2 µM)
[3]; [19]
  IC90: 2 µg/mL (≈ 3.2 µM)
[4]; [20]
  IC90: 0.08 µg/mL (≈ 0.128 µM)
[5]; [21]
  IC90: 0.4 µg/mL (≈ 0.64 µM)
[6]; [22]
  IC90: ≥ 50 µg/mL
[7]; [23]
  IC90: 0.08 µg/mL (≈ 0.128 µM)
[8]; [24]
  IC90: ≥ 50 µg/mL
